The target in experiment [1] is T1, SIRT1 (Homo sapiens, UniProt Q96EB6).
T1 sequence (Q96EB6 1-747): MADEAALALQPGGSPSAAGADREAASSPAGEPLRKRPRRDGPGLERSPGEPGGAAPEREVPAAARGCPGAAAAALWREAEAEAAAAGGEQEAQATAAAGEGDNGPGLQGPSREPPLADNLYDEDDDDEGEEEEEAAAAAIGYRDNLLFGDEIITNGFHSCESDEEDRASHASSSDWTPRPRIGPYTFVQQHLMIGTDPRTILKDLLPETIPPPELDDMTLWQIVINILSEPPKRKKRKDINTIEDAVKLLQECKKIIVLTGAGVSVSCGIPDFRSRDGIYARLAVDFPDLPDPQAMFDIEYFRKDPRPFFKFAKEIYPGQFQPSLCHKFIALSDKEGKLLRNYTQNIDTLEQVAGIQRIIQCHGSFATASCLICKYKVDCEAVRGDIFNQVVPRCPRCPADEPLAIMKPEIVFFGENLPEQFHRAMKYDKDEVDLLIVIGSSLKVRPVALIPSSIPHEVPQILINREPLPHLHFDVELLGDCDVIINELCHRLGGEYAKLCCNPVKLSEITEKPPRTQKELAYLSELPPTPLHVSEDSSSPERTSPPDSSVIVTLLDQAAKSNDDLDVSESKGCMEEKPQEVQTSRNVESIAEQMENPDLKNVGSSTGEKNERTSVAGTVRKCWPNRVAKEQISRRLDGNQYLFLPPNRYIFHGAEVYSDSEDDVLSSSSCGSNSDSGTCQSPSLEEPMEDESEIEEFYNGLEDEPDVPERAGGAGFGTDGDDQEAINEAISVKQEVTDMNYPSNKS
As to the kind of experiment: SIRT1 mass spectrometry (MS) based deacetylation assay. It is filed as biochemical. The note with it: for EC50: SIRT1 activation, mass spectrometry assay, read-out: ED50 MS ASSAY; for FOLD ACT. MS: fold activation of SIRT1 as determined by MS.

Experiment [2] has as its target T1, SIRT1. The experiment in a line: SIRT1 fluorescence polarization (FP) deacetylation assay with p53-based peptide substrates. The class given is biochemical. The note with it: SIRT1 activation, read-out: ED50 FP ASSAY. The procedure: A fluorescence polarization or mass spectrometry based assay was used to identify modulators of SIRT1 activity. The same assay may be used to identify modulators of any sirtuin protein. The fluorescence polarization assays utilizes one of two different peptides based on a fragment of p53, a known sirtuin deacetylation target. Compounds 1-18 were tested using a substrate containing peptide 1 having 14 amino acid residues as follows: […](Ac)NleSTEG (SEQ ID NO: 1) wherein K(Ac) is an acetylated lysine residue and Nle is a norleucine. The peptide is labeled with the fluorophore MR121 (excitation 635 nm/emission 680 nm) at the C-terminus and biotin at the N-terminus. The sequence of the peptide substrate is based on p53 with several modifications. In particular, all arginine and leucine residues other than the acetylated lysine have replaced with serine so that the peptide is not susceptible to trypsin cleavage in the absence of deacetylation. In addition, the methionine residue naturally present in the sequence has been replaced with the norleucine because the methionine may be susceptible to oxidation during synthesis and purification. […] This peptide is labeled with the fluorophore MR121 (excitation 635 nm/emission 680 nm) at the C-termini and biotin at the N-termini. The sequence of the peptide substrates are based on p53 with several modifications. In particular, all arginine and leucine residues other than the acetylated lysine residues have replaced with serine so that the peptides are not susceptible to trypsin cleavage in the absence of deacetylation. In addition, the methionine residues naturally present in the sequences have been replaced with the norleucine because the methionine may be susceptible to oxidation during synthesis and purification. […] The peptide is labeled with the fluorophore 5TMR (excitation 540 nm/emission 580 nm) at the C-terminus. The sequence of the peptide substrate is also based on p53 with several modifications. In addition, the methionine residue naturally present in the sequence was replaced with the norleucine because the methionine may be susceptible to oxidation during synthesis and purification.
The peptide substrates were exposed to a sirtuin protein in the presence of NAD^+ to allow deacetylation of the substrate and render it sensitive to cleavage by trypsin. Trypsin was then added and the reaction was carried to completion (i.e., the deacetylated substrate is cleaved) releasing the MR121 or 5TMR fragment. Streptavidin is then added to the reaction where it can bind both the uncleaved substrate (i.e., any remaining acetylated substrate) and the non-fluorescent portion of the cleaved peptide substrate (i.e., the biotin containing fragment). The fluorescence polarization signal observed for the full length peptide substrates bound to streptavidin was higher than the fluorescence polarization signal observed for the released MR121 or 5TMR C-terminal fragment. In this way, the fluorescence polarization obtained is inversely proportional to the level of deacetylation (e.g., the signal is inversely proportional to the activity of the sirtuin protein). Results were read on a microplate fluorescence polarization reader (Molecular Devices Spectramax MD) with appropriate excitation and emission filters.
The fluorescence polarization assays using peptide 1 was conducted as follows: 0.5 μM peptide substrate and 150 μM βNAD^+ is incubated with 0.1 μg/mL of SIRT1 for 60 minutes at 37° C. in a reaction buffer (25 mM Tris-acetate pH8, 137 mM Na—Ac, 2.7 mM K—Ac, 1 mM Mg—Ac, 0.05% Tween-20, 0.1% Pluronic F127, 10 mM CaCl2, 5 mM DTT, 0.025% BSA, 0.15 mM Nicotinamide). Test compounds 1-18 were solubilized in DMSO and added to the reaction at 11 concentrations ranging from 0.7 μM to 100 μM. […]

Experiment [3] relates to NCI-H358 cells. As to the kind of experiment: Cellular ATP Assay (ATPLite 1Step normalized to AlamarBlue viability). The class given is cell-based. The conditions noted are these: Homo sapiens, compounds that raised intracellular ATP levels, read-out: ED50 ATP ASSAY. As to the method:
Cellular ATP levels are an indirect measurement of cellular metabolic rates and, by extension, mitochondrial function. […] The ATP assay is combined with a cellular viability assay so that cellular ATP levels can be normalized to viable cells. Cellular ATP levels were measured using the ATPLite 1Step Kit (PerkinElmer) and cellular viability was measured using the cell permeable dye, AlamarBlue™.
The Cellular ATP Assay is a multiplexed assay that measures both ATP levels and viability of a given cell sample. This assay is run in a 96-well Assay Plate and data are reported as the [ATP]/viability for each well in the Assay Plate.
The ATPLite 1 Step™ Kit is a single-step luminescent cell-based assay for detection of ATP. The kit contains lyophilized substrate mixture, comprised of D-luciferin and the firefly (Photinus pyralis) enzyme luciferase. Additionally, the kit contains a detergent-based reconstitution buffer that induces the lysis of cellular membranes. The luciferase in the assay mixture catalyzes a reaction between the free cellular ATP and D-luciferin to produce bioluminescence according to the schematic reaction outlined below. The amount of light produced is proportional to the cellular ATP concentration.
The AlamarBlue™ Assay is a single-step assay that utilizes a soluble, non-toxic, cell permeable dye that is added to cell growth media. This dye undergoes electron reduction in viable cells but not dead cells. The reduced dye product gives a fluorescent signal which can be monitored with a fluorescence plate reader (excitation 545 nm and emission 575 nm). The amount of fluorescence generated in a given well is proportional to the number of viable cells. The viability signal generated by this assay is used to normalize the ATP signal from the ATPLite 1Step™ assay results.
The material was dissolved in 100% vehicle (DMSO) to yield a final concentration of 10 mM (stock solution). The stock solution was serially diluted with 100% DMSO as described in SOP 7.10.
In this assay NCI-H358 cells (obtained from the American Tissue Culture Collection, ATCC) were seeded in 96 well microplates (10^4 cells/well). The NCI-H358 Growth Culture Media consists of RPMI 1640 Media supplemented with 10% FBS, […] streptomycin, and 100 units/mL penicillin. […] After 48 hours of compound treatment under cell growth conditions, plates were removed from incubator, and 15 μl of AlamarBlue™ dye was added to each well. Cell microplates were incubated with dye for 2 hours under growth conditions, and fluorescence was subsequently measured using a plate reader. Media containing AlamarBlue™ was removed, and plates were washed in 100 μl of PBS per well. This wash was removed, and 200 μl of 1×ATPLite 1Step reagent was added to each well. Luminescence was then measured using a plate reader. The ATP signal for each well, measured by the luminescence scan, was normalized to its corresponding cell viability value, measured by the fluorescence scan, to generate the average ATP level per viable cell unit (ATP/vCell). The ATP/vCell for each treatment was then normalized to the average vehicle ATP/vCell for its respective cell microplate, yielding the normalized ATP/vCell (norm. ATP/vCell). Finally, the norm. ATP/vCell for each unique treatment was averaged across plate replicates, generating the average norm. ATP/vCell.
Each of these ATP levels was normalized to the cell viability in the corresponding treatment well, generating the ATP/vCell value. Each ATP/vCell value was subsequently normalized to its average Vehicle ATP/vCell values for its respective cell microplate.
Data are represented as the normalized ATP/vCell (arbitrary units). […] These values represent an average of three plate replicates.
A number of compounds were screened for their affect on ATP levels in the assay as described in Example 5. […] NA means that the compound was not tested using the indicated assay.

Each structure is given as a SMILES string.

Consider `Cc1ccc(C)n1-c1cccc(C(=O)Nc2ccc(-c3nc4ncccc4o3)cc2)c1` [Compound 19], for which the EC50 in experiment [1] and in experiment [2] was more than 150 µM in each case.

`O=C(Nc1ccc(-c2nc3ncccc3o2)cc1)c1ccc(N2CCOCC2)cc1` [Compound 20]: the EC50 in experiment [1] and in experiment [2] was more than 150 µM throughout.

Regarding `O=C(Nc1ccc(-c2nc3ncccc3o2)cc1)c1ccc(N2CCCCC2)cc1` [Compound 21], the EC50 in experiment [1] and in experiment [2] was more than 150 µM in each case.

For the compound `COc1ccc(C(=O)Nc2ccc(-c3nc4ncccc4o3)cc2)cc1C(F)(F)F` [Compound 22], the EC50 in experiment [1] and in experiment [2] was more than 150 µM each time.

On to `CN(C)c1ccc(C(=O)Nc2ccc(-c3nc4ncccc4o3)cc2)cc1` [Compound 24], for which the EC50 in experiment [1] and in experiment [2] was more than 150 µM throughout.

In the case of `COc1cccc(OC)c1C(=O)Nc1ccc(-c2nc3ncccc3o2)cc1` [Compound 27], the EC50 in experiment [1] and in experiment [2] was more than 150 µM in each case.

For `O=C(Nc1ccc(-c2nc3ncccc3o2)cc1)c1ccc(N2CCCC2)cc1` [Compound 29], the EC50 in experiment [1] and in experiment [2] was more than 150 µM in each case.

Regarding `COc1cccc(C(=O)Nc2ccc(-c3nc4ncccc4o3)cc2)c1C` [Compound 31], the EC50 in experiment [1] and in experiment [2] was more than 150 µM each time.

For `O=C(Nc1ccc(-c2nc3ncccc3o2)cc1)c1cccc(OC(F)(F)F)c1` [Compound 32], the EC50 in experiment [1] and in experiment [2] was more than 150 µM throughout.

For `COc1ccc(C(=O)Nc2ccc(-c3nc4ncccc4o3)cc2)cc1OC` [Compound 33], the EC50 in experiment [1] and in experiment [2] was more than 150 µM in each case.

Consider `COc1ccc(C(=O)Nc2ccc(-c3nc4ncccc4o3)cc2)c(OC)c1OC` [Compound 34], for which the EC50 in experiment [1] and in experiment [2] was more than 150 µM each time.

Take `COc1ccc(C(=O)Nc2ccc(-c3nc4ncccc4o3)cc2)cc1` [Compound 35]: the EC50 in experiment [1] and in experiment [2] was more than 150 µM throughout.

With `COc1ccc(C(=O)Nc2ccc(-c3nc4ncccc4o3)cc2)c(OC)c1` [Compound 36], the EC50 in experiment [1] and in experiment [2] was more than 150 µM throughout.

Take `O=C(Nc1ccc(-c2nc3ncccc3o2)cc1)c1ccccc1` [Compound 37]: the EC50 in experiment [1] and in experiment [2] was more than 150 µM each time.

Turning to `CN(C)c1cccc(C(=O)Nc2cccc(-c3nc4ncccc4o3)c2)c1` [Compound 42], the figures for the EC50 in experiment [1], in experiment [2] and in experiment [3] were 5 to 50 µM, 5 to 50 µM and less than 50 µM, respectively. Besides, in experiment [1], the “FOLD ACT. MS” value is recorded as “B (B (Fold Activation <250%))”.

`CN(C)c1ccc(C(=O)Nc2cccc(-c3nc4ncccc4o3)c2)cc1` [Compound 43]: in experiment [1], the EC50 was 5 to 50 µM and the “FOLD ACT. MS” value is “B (B (Fold Activation <250%))”. For the same compound, the EC50 in experiment [2] lay within 5 to 50 µM.

For `COc1cc(C)ccc1C(=O)Nc1cccc(-c2nc3ncccc3o2)c1` [Compound 51], in experiment [1], the EC50 is 5 to 50 µM and the “FOLD ACT. MS” value is “B (B (Fold Activation <250%))”. In addition, in experiment [2], the EC50 lay in the range of 5 to 50 µM.

With `COc1ccc(C(=O)Nc2cccc(-c3nc4ncccc4o3)c2)cc1OC` [Compound 52], the EC50 in experiment [1] is 5 to 50 µM; in experiment [2], 5 to 50 µM; in experiment [3], less than 50 µM. Also, the “FOLD ACT. MS” value in experiment [1] is listed as “B (B (Fold Activation <250%))”.

Regarding `COc1ccc(C(=O)Nc2cccc(-c3nc4ncccc4o3)c2)c(OC)c1` [Compound 55], in experiment [1], the EC50 fell in the range of 5 to 50 µM and the “FOLD ACT. MS” value is on record as “B (B (Fold Activation <250%))”. Also, the EC50 in experiment [2] was 5 to 50 µM.

For the origin of these results see US8044198B2, “Sirtuin modulating compounds” (Sirtris Pharmaceuticals, Inc., priority 2005, dated 2011).
